Assay results published in patent US20080020973A1 (priority 2004, published 2008).

Key:
vTopo = target: T1, vTopo (Vaccinia virus, UniProt P68698); settings: inhibition of vTopo; cited from earlier work
T1 construct: made in house

human topo IB enzyme = target: T2, human topo IB enzyme (Homo sapiens, UniProt P11387); settings: cited from earlier work
T2 sequence (P11387 1-765): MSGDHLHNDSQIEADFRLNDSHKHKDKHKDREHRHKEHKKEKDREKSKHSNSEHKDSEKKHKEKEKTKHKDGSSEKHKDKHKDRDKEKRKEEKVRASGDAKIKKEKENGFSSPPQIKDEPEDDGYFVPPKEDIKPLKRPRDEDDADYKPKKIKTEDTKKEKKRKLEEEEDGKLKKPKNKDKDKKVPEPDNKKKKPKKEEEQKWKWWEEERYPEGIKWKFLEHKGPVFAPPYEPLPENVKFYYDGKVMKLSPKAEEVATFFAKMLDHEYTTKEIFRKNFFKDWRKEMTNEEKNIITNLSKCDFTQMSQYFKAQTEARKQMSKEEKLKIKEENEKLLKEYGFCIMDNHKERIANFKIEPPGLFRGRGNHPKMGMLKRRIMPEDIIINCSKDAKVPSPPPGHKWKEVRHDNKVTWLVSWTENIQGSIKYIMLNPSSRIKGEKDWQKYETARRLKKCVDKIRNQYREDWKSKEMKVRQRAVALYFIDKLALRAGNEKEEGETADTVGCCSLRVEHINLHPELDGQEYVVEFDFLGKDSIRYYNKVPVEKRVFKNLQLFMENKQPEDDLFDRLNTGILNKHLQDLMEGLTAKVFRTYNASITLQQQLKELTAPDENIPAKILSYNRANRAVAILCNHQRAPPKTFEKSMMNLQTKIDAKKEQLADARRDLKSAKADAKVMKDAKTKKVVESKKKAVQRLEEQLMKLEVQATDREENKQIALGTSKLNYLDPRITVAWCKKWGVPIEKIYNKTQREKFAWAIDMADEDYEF

[1] = target: vaccinia DNA topoisomerase IB (vTopo) (Vaccinia virus, UniProt P68698); experiment: biochemical

SMILES: CO[C@@H]1[C@@H](OC(N)=O)[C@@H](O)[C@H](Oc2ccc3c(O)c(NC(=O)c4ccc(O)c(CC=C(C)C)c4)c(=O)oc3c2C)OC1(C)C [novobiocin]
- Ki (vTopo): 325 µM
- inhibition of human topo IB enzyme (human topo IB enzyme): no inhibition
- inhibition of the relaxation reaction [1]: complete inhibition
